Read-outs that look alike come from different tables or passages of the source.
Target: T1, pSTAT3 (pY705-STAT3) (Homo sapiens, UniProt P40763)
T1 construct: host or cells: cryopreserved PBMC
Assay: MSD-pSTAT-PBMC Assay (pSTAT3, IL-6 stimulated)
Format: cell-based
How it was run: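 Phospho-STAT levels captured on anti-STAT3 or anti-STAT6 plates and detected with anti-pY705 or anti-pY641 antibodies (MSD read-out). Cryopreserved human PBMCs received compound for 3 h before a 10 min pulse of IL-6 (10 ng/mL, STAT3) or IL-4 (1 ng/mL, STAT6). IC50 fitted after unstimulated-background subtraction and DMSO normalization.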

[1] = PBMC, compound 3 hrs, then 10 ng/mL IL-6 for 10 min, MSD pY705-STAT3, read-out: pSTAT3

T1 sequence (P40763 whole entry): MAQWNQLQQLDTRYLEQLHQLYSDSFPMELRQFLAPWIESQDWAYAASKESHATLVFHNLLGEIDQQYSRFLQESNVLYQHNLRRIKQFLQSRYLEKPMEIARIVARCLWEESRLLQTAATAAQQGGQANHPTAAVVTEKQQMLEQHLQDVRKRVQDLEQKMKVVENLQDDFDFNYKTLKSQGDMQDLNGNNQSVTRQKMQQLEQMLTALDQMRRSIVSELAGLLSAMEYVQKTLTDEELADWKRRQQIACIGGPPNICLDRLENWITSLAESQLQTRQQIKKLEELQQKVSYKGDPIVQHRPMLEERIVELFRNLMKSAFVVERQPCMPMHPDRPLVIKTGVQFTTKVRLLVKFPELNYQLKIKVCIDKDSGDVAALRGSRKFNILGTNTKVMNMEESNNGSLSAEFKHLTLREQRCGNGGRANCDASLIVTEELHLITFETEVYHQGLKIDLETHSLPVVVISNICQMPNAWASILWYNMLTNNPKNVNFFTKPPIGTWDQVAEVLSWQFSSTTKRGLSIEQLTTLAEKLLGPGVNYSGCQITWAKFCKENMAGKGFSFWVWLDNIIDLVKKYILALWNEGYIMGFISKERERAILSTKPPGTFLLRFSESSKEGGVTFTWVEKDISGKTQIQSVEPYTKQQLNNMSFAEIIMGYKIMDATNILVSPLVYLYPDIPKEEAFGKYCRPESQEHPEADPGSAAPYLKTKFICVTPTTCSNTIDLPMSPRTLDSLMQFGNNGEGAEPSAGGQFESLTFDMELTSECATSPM

Row | SMILES | IC50 [1] | IC50
1 | CCCOC(=O)[C@H](C)NP(=O)(Oc1ccccc1)C(F)c1ccc2sc(C(=O)N[C@H]3C[C@H]4C[C@H]4C[C@H]4CC[C@@H](C(=O)N5CC(c6ncccn6)C5)N4C3=O)cc2c1 (stereo partly drawn) [Compound 338, propyl ((fluoro(2-(((3S,6S,7aR,8aS,9aR)-5-oxo-3-(3-(pyrimidin-2-yl)azetidine-1-carbonyl)decahydro-1H-cyclopropa[d]pyrrolo[1,2-a]azocin-6-yl)carbamoyl)benzo[b]thiophen-5-yl)methyl)(phenoxy)phosphoryl)-L-alaninate] | < 100 nM | –
2 | CCCOC(=O)[C@H](C)NP(=O)(Oc1ccccc1)C(F)c1ccc2sc(C(=O)N[C@H]3C[C@@H]4C[C@@H]4C[C@H]4CC[C@@H](C(=O)N5CC(c6cc(C)on6)C5)N4C3=O)cc2c1 (stereo partly drawn) [Compound 359, propyl ((fluoro(2-(((3S,6S,7aS,8aR,9aR)-3-(3-(5-methylisoxazol-3-yl)azetidine-1-carbonyl)-5-oxodecahydro-1H-cyclopropa[d]pyrrolo[1,2-a]azocin-6-yl)carbamoyl)benzo[b]thiophen-5-yl)methyl)(phenoxy)phosphoryl)-L-alaninate] | < 100 nM | –
3 | CCCOC(=O)[C@H](C)NP(=O)(Oc1ccccc1)C(F)c1ccc2sc(C(=O)N[C@H]3C[C@@H]4C[C@@H]4C[C@H]4CC[C@@H](C(=O)N5CC(c6nc(C)no6)C5)N4C3=O)cc2c1 (stereo partly drawn) [Compound 360, propyl ((fluoro(2-(((3S,6S,7aS,8aR,9aR)-3-(3-(3-methyl-1,2,4-oxadiazol-5-yl)azetidine-1-carbonyl)-5-oxodecahydro-1H-cyclopropa[d]pyrrolo[1,2-a]azocin-6-yl)carbamoyl)benzo[b]thiophen-5-yl)methyl)(phenoxy)phosphoryl)-L-alaninate] | < 100 nM | –
4 | CCCOC(=O)[C@H](C)NP(=O)(Oc1ccccc1)C(F)c1ccc2sc(C(=O)N[C@H]3C[C@@H]4C[C@@H]4C[C@H]4CC[C@@H](C(=O)N5CC(c6cc(C)no6)C5)N4C3=O)cc2c1 (stereo partly drawn) [Compound 361, propyl ((fluoro(2-(((3S,6S,7aS,8aR,9aR)-3-(3-(3-methylisoxazol-5-yl)azetidine-1-carbonyl)-5-oxodecahydro-1H-cyclopropa[d]pyrrolo[1,2-a]azocin-6-yl)carbamoyl)benzo[b]thiophen-5-yl)methyl)(phenoxy)phosphoryl)-L-alaninate] | < 100 nM | –
5 | CCCOC(=O)[C@H](C)NP(=O)(Oc1ccccc1)C(F)c1ccc2sc(C(=O)N[C@H]3C[C@@H]4C[C@@H]4C[C@H]4CC[C@@H](C(=O)N5CC(c6cc(OC)no6)C5)N4C3=O)cc2c1 (stereo partly drawn) [Compound 362, propyl ((fluoro(2-(((3S,6S,7aS,8aR,9aR)-3-(3-(3-methoxyisoxazol-5-yl)azetidine-1-carbonyl)-5-oxodecahydro-1H-cyclopropa[d]pyrrolo[1,2-a]azocin-6-yl)carbamoyl)benzo[b]thiophen-5-yl)methyl)(phenoxy)phosphoryl)-L-alaninate] | < 100 nM | –
6 | CCCOC(=O)[C@H](C)NP(=O)(Oc1ccccc1)C(F)c1ccc2sc(C(=O)N[C@H]3C[C@@H]4C[C@@H]4C[C@H]4CC[C@@H](C(=O)N5CC(CS(C)(=O)=O)C5)N4C3=O)cc2c1 (stereo partly drawn) [Compound 363, propyl ((fluoro(2-(((3S,6S,7aS,8aR,9aR)-3-(3-((methylsulfonyl)methyl)azetidine-1-carbonyl)-5-oxodecahydro-1H-cyclopropa[d]pyrrolo[1,2-a]azocin-6-yl)carbamoyl)benzo[b]thiophen-5-yl)methyl)(phenoxy)phosphoryl)-L-alaninate] | 100 to 1000 nM | –
7 | Cc1ccncc1C1CN(C(=O)[C@@H]2CC[C@@H]3C[C@H]4C[C@H]4C[C@H](NC(=O)c4cc5cc(C(F)P(=O)(N[C@@H](C)C(=O)OCC(C)C)Oc6ccccc6)ccc5s4)C(=O)N32)C1 (stereo partly drawn) [Compound 374, isobutyl ((fluoro(2-(((3S,6S,7aS,8aR,9aR)-3-(3-(4-methylpyridin-3-yl)azetidine-1-carbonyl)-5-oxodecahydro-1H-cyclopropa[d]pyrrolo[1,2-a]azocin-6-yl)carbamoyl)benzo[b]thiophen-5-yl)methyl)(phenoxy)phosphoryl)-L-alaninate] | < 100 nM | –
8 | CCCOC(=O)[C@H](C)NP(=O)(Oc1ccccc1)C(F)c1ccc2sc(C(=O)N[C@H]3C[C@@H]4C[C@@H]4C[C@H]4CC[C@@H](C(=O)N5CC(c6cc(C(F)F)on6)C5)N4C3=O)cc2c1 (stereo partly drawn) [Compound 381, propyl(((2-(((3S,6S,7aS,8aR,9aR)-3-(3-(5-(difluoromethyl)isoxazol-3-yl)azetidine-1-carbonyl)-5-oxodecahydro-1H-cyclopropa[d]pyrrolo[1,2-a]azocin-6-yl)carbamoyl)benzo[b]thiophen-5-yl)fluoromethyl)(phenoxy)phosphoryl)-L-alaninate] | – | < 100 nM
9 | CCCOC(=O)[C@H](C)NP(=O)(Oc1ccccc1)C(F)c1ccc2sc(C(=O)N[C@H]3C[C@@H]4C[C@@H]4C[C@H]4CC[C@@H](C(=O)N[C@H]5CN(C(N)=O)C[C@@H]5F)N4C3=O)cc2c1 (stereo partly drawn) [Compound 382, propyl(((2-(((3S,6S,7aS,8aR,9aR)-3-(((3S,4S)-1-carbamoyl-4-fluoropyrrolidin-3-yl)carbamoyl)-5-oxodecahydro-1H-cyclopropa[d]pyrrolo[1,2-a]azocin-6-yl)carbamoyl)benzo[b]thiophen-5-yl)fluoromethyl)(phenoxy)phosphoryl)-L-alaninate] | – | 100 to 1000 nM
10 | CCCOC(=O)[C@H](C)NP(=O)(Cc1ccc2sc(C(=O)N[C@H]3C[C@H]4C[C@H]4C[C@H]4CC[C@@H](C(=O)N5CC(c6cnccc6CC)C5)N4C3=O)cc2c1)Oc1ccccc1 (stereo partly drawn) [Compound 392, propyl(((2-(((3S,6S,7aR,8aS,9aR)-3-(3-(4-ethylpyridin-3-yl)azetidine-1-carbonyl)-5-oxodecahydro-1H-cyclopropa[d]pyrrolo[1,2-a]azocin-6-yl)carbamoyl)benzo[b]thiophen-5-yl)methyl)(phenoxy)phosphoryl)-L-alaninate] | – | < 100 nM
11 | CCCOC(=O)[C@H](C)N[P@](=O)(Oc1ccccc1)[C@H](F)c1ccc2sc(C(=O)N[C@H]3C[C@H]4C[C@H]4C[C@H]4CC[C@@H](C(=O)N5CC(c6cnccc6N6CCOCC6)C5)N4C3=O)cc2c1 [Compound 395, propyl((R)-((S)-fluoro(2-(((3S,6S,7aR,8aS,9aR)-3-(3-(4-morpholinopyridin-3-yl)azetidine-1-carbonyl)-5-oxodecahydro-1H-cyclopropa[d]pyrrolo[1,2-a]azocin-6-yl)carbamoyl)benzo[b]thiophen-5-yl)methyl)(phenoxy)phosphoryl)-L-alaninate] | – | < 100 nM
12 | CCCOC(=O)[C@H](C)N[P@@](=O)(Oc1ccccc1)[C@H](F)c1ccc2sc(C(=O)N[C@H]3C[C@H]4C[C@H]4C[C@H]4CC[C@@H](C(=O)N5CC(c6cnccc6N6CCOCC6)C5)N4C3=O)cc2c1 [Compound 396, propyl((S)-((S)-fluoro(2-(((3S,6S,7aR,8aS,9aR)-3-(3-(4-morpholinopyridin-3-yl)azetidine-1-carbonyl)-5-oxodecahydro-1H-cyclopropa[d]pyrrolo[1,2-a]azocin-6-yl)carbamoyl)benzo[b]thiophen-5-yl)methyl)(phenoxy)phosphoryl)-L-alaninate] | – | < 100 nM
13 | CCCOC(=O)[C@H](C)NP(=O)(Cc1ccc2sc(C(=O)N[C@H]3C[C@H]4C[C@H]4C[C@H]4CC[C@@H](C(=O)N5CC(c6cnccc6N(C)C)C5)N4C3=O)cc2c1)Oc1ccccc1 (stereo partly drawn) [Compound 397, propyl(((2-(((3S,6S,7aR,8aS,9aR)-3-(3-(4-(dimethylamino)pyridin-3-yl)azetidine-1-carbonyl)-5-oxodecahydro-1H-cyclopropa[d]pyrrolo[1,2-a]azocin-6-yl)carbamoyl)benzo[b]thiophen-5-yl)methyl)(phenoxy)phosphoryl)-L-alaninate] | – | < 100 nM
14 | CCCOC(=O)[C@H](C)N[P@@](=O)(Oc1ccccc1)[C@H](F)c1ccc2sc(C(=O)N[C@H]3C[C@H]4C[C@H]4C[C@H]4CC[C@@H](C(=O)N5CC(c6cnccc6N(C)C)C5)N4C3=O)cc2c1 [Compound 398, propyl((R)-((S)-(2-(((3S,6S,7aR,8aS,9aR)-3-(3-(4-(dimethylamino)pyridin-3-yl)azetidine-1-carbonyl)-5-oxodecahydro-1H-cyclopropa[d]pyrrolo[1,2-a]azocin-6-yl)carbamoyl)benzo[b]thiophen-5-yl)fluoromethyl)(phenoxy)phosphoryl)-L-ananinate] | < 100 nM | –
15 | CCCOC(=O)[C@H](C)N[P@@](=O)(Oc1ccccc1)[C@H](F)c1ccc2sc(C(=O)N[C@H]3C[C@H]4C[C@H]4C[C@H]4CC[C@@H](C(=O)N5CC(c6cnccc6N(C)C)C5)N4C3=O)cc2c1 [Compound 399] | < 100 nM | –
16 | CCCOC(=O)[C@H](C)NP(=O)(Oc1ccccc1)C(F)c1ccc2sc(C(=O)N[C@H]3C[C@@H]4C[C@@H]4C[C@H]4CC[C@@H](C(=O)N5CC(c6cncnc6N6CCC6)C5)N4C3=O)cc2c1 (stereo partly drawn) [Compound 412, propyl(((S)-(2-(((3S,6S,7aS,8aR,9aR)-3-(3-(4-(azetidin-1-yl)pyrimidin-5-yl)azetidine-1-carbonyl)-5-oxodecahydro-1H-cyclopropa[d]pyrrolo[1,2-a]azocin-6-yl)carbamoyl)benzo[b]thiophen-5-yl)fluoromethyl)(phenoxy)phosphoryl)-L-alaninate] | – | < 100 nM
17 | CCCOC(=O)[C@H](C)NP(=O)(Oc1ccccc1)[C@H](F)c1ccc2sc(C(=O)N[C@H]3C[C@@H]4C[C@@H]4C[C@H]4CC[C@@H](C(=O)N5CC(c6cnccc6N6CCOCC6)C5)N4C3=O)cc2c1 (stereo partly drawn) [Compound 413, propyl(((S)-fluoro(2-(((3S,6S,7aS,8aR,9aR)-3-(3-(4-morpholinopyridin-3-yl)azetidine-1-carbonyl)-5-oxodecahydro-1H-cyclopropa[d]pyrrolo[1,2-a]azocin-6-yl)carbamoyl)benzo[b]thiophen-5-yl)methyl)(phenoxy)phosphoryl)-L-alaninate] | – | < 100 nM

From US20250215030A1, “STAT MODULATORS AND USES THEREOF” (Recludix Pharma, Inc., priority 2022, published 2025)
